# Data taken from US20210292315A1, “SELENIUM-CONTAINING ISOXAZOLAMINE COMPOUND, PREPARATION METHOD THEREFOR, AND USE THEREOF” (SHANGHAI XINGYE PHARMACEUTICAL TECHNOLOGY CO., LTD, priority 2018, published 2021).
# Where two headings read alike, the source gives them in different places.
# Experiments:
# [1] = tested on: TNF-α; assay: TNF-α activity inhibiting assay: LPS-stimulated peripheral blood, TNF-α by ELISA; format: cell-based, human; settings: LPS 10 ng/mL, 6 hours, diluted peripheral blood from healthy volunteers, read-out: TNF-α inhibition (%)
# Experimental: Methods: Peripheral blood from healthy volunteers was collected with EDTA anticoagulant tubes. After being diluted 5-fold with 1640 medium (Gibco, USA), the blood was added to 96-well cell culture plates (Costar, USA) and then treated with 10 μL solution of the compound of general formula (I) of the present invention in DMSO (Sigma, USA), and the final concentration of DMSO was 0.2%. After incubation for 60 minutes in an incubator at 37° C. under 5% CO2, 10 μL LPS (Sigma, USA) was added to the reaction system, and the final concentration was 10 ng/mL. After further culturing for 6 hours in the incubator at 37° C. under 5% CO2, the supernatant was collected. The content of TNF-α was determined by ELISA (BD Biosciences, USA). Absorbance was detected at OD450 nm with a microplate reader, with GD 650 nm as reference. The control, a solution containing 0.2% DMSO medium, was as 0% inhibition. Raw data and standard curves were recorded. The four-parameter drug inhibition curve was plotted by XL-fit software and the inhibition rate of each compound was calculated.
# [2] = target: T1, Thioredoxin Reductase 1 (TrxR1) (Homo sapiens, UniProt Q16881); assay: Thioredoxin reductase 1 (TrxR1) activity inhibiting assay, NADPH consumption at 340 nm; format: biochemical; settings: insulin/Trx/NADPH system, absorbance 340 nm; read-out: TrxR inhibition IC50
# T1 sequence (Q16881 151-649 limits assumed): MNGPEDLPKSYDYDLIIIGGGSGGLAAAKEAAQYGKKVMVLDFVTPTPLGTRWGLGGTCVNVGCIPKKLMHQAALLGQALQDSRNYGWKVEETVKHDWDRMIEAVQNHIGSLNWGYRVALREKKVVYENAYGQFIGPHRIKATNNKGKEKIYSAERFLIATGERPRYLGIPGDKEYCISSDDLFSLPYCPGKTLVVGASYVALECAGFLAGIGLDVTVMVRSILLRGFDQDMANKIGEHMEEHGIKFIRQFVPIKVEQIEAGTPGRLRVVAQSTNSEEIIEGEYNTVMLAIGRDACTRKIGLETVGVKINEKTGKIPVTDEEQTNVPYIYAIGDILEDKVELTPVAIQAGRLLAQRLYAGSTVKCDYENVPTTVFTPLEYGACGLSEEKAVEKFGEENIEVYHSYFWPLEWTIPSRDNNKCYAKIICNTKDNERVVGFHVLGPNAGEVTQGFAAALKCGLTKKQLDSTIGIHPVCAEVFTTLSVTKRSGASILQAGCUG
# Experimental: Working solutions: 0.119 mg/mL of TrxR working solution preparation: 175 μL of TrxR stock solution (0.34 mg/mL) was diluted to 500 μL; 1 mM NADPH working solution preparation, NADPH (5 mg) was dissolved in 12 mL potassium phosphate buffer; 1 mM DTNB working solution preparation: 25 mg DTNB was dissolve in 63 mL DMSO; potassium phosphate buffer system preparation: 0.2 mg/mL bovine serum albumin (BSA) and 1 mM EDTA were added to potassium phosphate buffer at pH 7.4 (K2HPO4/KH2PO4).
# Methods: The TrxR1 inhibitory activity study of selenium-containing isoxazolamines in vitro. Insulin, NADPH, Trx, the samples and TrxR1 were added to a microcuvette in order, and subsequently added the work buffer (0.1 mol/L potassium phosphate/2 mmol/L EDTA) to a total volume of 0.5 mL. The concentration of each component in the obtained reaction system is: insulin 130 μmol/L, NADPH […] (Sigma), Trx 4 μmol/L, the added substrate (the selenium-containing isoxazolamines treated samples). After determination of the initial absorption at 340 nm, the enzymatic reaction was started by adding 20 μg extracted TrxR1 proteins, the decrease in absorbance at 340 nm was monitored. One unit of enzymatic activity is defined as the consumption. The activity can be calculated from the extinction coefficient of NADPH, and the unit of enzyme activity is defined as: 1U=ΔA340 nm/min×1000, the TR activity could be calculated with U/L. The results are shown in table 2.
# [3] = Glutathione peroxidase (GPx)-like activity assay, coupled NADPH oxidation at 340 nm; format: biochemical; settings: compound 50 μm, GSH 2.0 mM, pH 7.5, 25° C.; for Initial rate v0, Cum-OOH: peroxide Cum-OOH 1.6 mM; for Initial rate v0, H2O2: peroxide H2O2 1.6 mM; for Initial rate v0, tBuOOH: peroxide tBuOOH 1.6 mM
# Experimental: Method: GPX activity of selenium compounds was assayed by ultraviolet spectrophotometry. Glutathione (2.0 mM), EDTA (1 mM), glutathione disulfide reductase (1.7 units mL^−1), and nicotinamide adenine dinucleotide phosphate […] (NADPH; 0.4 mM) were mixed intopotassium phosphate buffer (0.1 M, pH=7.5). The selenium compounds (50 μm) was added to the above mixture At room temperature (25° C.), and the reaction was started by the addition of H2O2, tBuOOH or Cum-OOH (1.6 mM) respectively. The initial reduction rates were calculated from the rate of NADPH oxidation at 340 nm in a GSH assay. Each initial rate was measured at least three times and calculated from the first 5-10% of the reaction by using 6.22 mM^−1 cm^−1 as the molar extinction coefficient for NADPH. For the peroxidase activity, the rates were corrected for the background reaction between peroxide and thiol.
SMILES,IC50 ([1]; Homo sapiens),IC50 [2],IC50 [1],other results
CC(=O)Nc1cccc2c(=O)n(C3CCC(=O)NC3=O)[se]c12 (stereo not shown) [Compound 9],10 to 100 µM,5 to 50 µM,–,–
Nc1cccc2c1[Se](=O)N(C1CCC(=O)NC1=O)C2=O (stereo not shown) [Compound 35],–,–,< 1 µM,–
O=C1c2ccccc2[Se](=O)N1C12CC3CC(CC(O)(C3)C1)C2 (stereo not shown) [Compound 32],> 100 µM,–,–,"Initial rate v0, Cum-OOH [3]: 11.5 ± 0.2 μm min^−1; Initial rate v0, H2O2 [3]: 36.7 ± 0.8 μm min^−1; Initial rate v0, tBuOOH [3]: 12.0 ± 2.3 μm min^−1"
COc1ccc2nc(-n3[se]c4ccccc4c3=O)sc2c1 [Compound 23],–,5 to 50 µM,10 to 100 µM,–
Nc1cccc2c(=O)n(C3CCC(=O)NC3=O)[se]c12 (stereo not shown) [Compound 6],–,–,< 1 µM,–
O=C1CC(n2[se]c3c(F)cccc3c2=O)C(=O)N1 (stereo not shown) [Compound 27],–,5 to 50 µM,1 to 10 µM,–
O=C1CCC(N2C(=O)c3cc(F)ccc3[Se]2=O)C(=O)N1 (stereo not shown) [Compound 36],–,–,10 to 100 µM,–
COc1cccc2c(=O)n(-c3nc4ccc(OC(F)(F)F)cc4s3)[se]c12 [Compound 30],10 to 100 µM,< 5 µM,–,–
O=C1CCC(n2[se]c3cc(F)ccc3c2=O)C(=O)N1 (stereo not shown) [Compound 7],10 to 100 µM,< 5 µM,–,"Initial rate v0, Cum-OOH [3]: 142.2 ± 8.2 μm min^−1; Initial rate v0, H2O2 [3]: 128.2 ± 2.0 μm min^−1; Initial rate v0, tBuOOH [3]: 49.3 ± 5.0 μm min^−1"
N#Cc1cccc2c(=O)n(C3CCC(=O)NC3=O)[se]c12 (stereo not shown) [Compound 16],1 to 10 µM,5 to 50 µM,–,–
COc1ccc2c(c1)CN(C1CCC(=O)NC1=O)[Se]2 (stereo not shown) [Compound 45],–,5 to 50 µM,–,–
O=c1c2ccccc2[se]n1C12CC3CC(CC(O)(C3)C1)C2 [Compound 19],–,–,10 to 100 µM,"Initial rate v0, Cum-OOH [3]: 34.2 ± 1.5 μm min^−1; Initial rate v0, H2O2 [3]: 99.7 ± 1.9 μm min^−1; Initial rate v0, tBuOOH [3]: 32.3 ± 3.5 μm min^−1"
O=c1c2ccccc2[se]n1-c1nc2ccc(OC(F)(F)F)cc2s1 [Compound 22],1 to 10 µM,< 5 µM,–,–
Cc1cccc2c(=O)n(C3CCC(=O)NC3=O)[se]c12 (stereo not shown) [Compound 15],–,–,< 1 µM,–
O=C1CC(n2[se]c3cc(F)ccc3c2=O)C(=O)N1 (stereo not shown) [Compound 26],–,–,10 to 100 µM,"Initial rate v0, Cum-OOH [3]: 164.5 ± 9.1 μm min^−1; Initial rate v0, H2O2 [3]: 145.2 ± 3.4 μm min^−1; Initial rate v0, tBuOOH [3]: 55.7 ± 5.2 μm min^−1"
O=c1c2ccccc2[se]n1-c1nc2ccccc2s1 [Compound 21],10 to 100 µM,5 to 50 µM,–,"Initial rate v0, Cum-OOH [3]: 94.5 ± 4.2 μm min^−1; Initial rate v0, H2O2 [3]: 115.3 ± 2.6 μm min^−1; Initial rate v0, tBuOOH [3]: 35.7 ± 4.2 μm min^−1"
COc1cc2c(=O)n(C3CCC(=O)NC3=O)[se]c2c(OC)c1OC (stereo not shown) [Compound 14],–,–,< 1 µM,–
O=C1CCC(N2C(=O)c3ccc(F)cc3[Se]2=O)C(=O)N1 (stereo not shown) [Compound 39],–,–,10 to 100 µM,–
COc1cc2[se]n(C3CCC(=O)NC3=O)c(=O)c2cc1OC (stereo not shown) [Compound 13],1 to 10 µM,< 5 µM,–,–
"Nc1cccc2c1CN(C1CCC(=O)NC1=O)C2=O (stereo not shown) [Lenadomide, reference compound]",< 1 µM,–,–,–
COc1cccc2c1[Se]N(C1CCC(=O)NC1=O)C2 (stereo not shown) [Compound 44],1 to 10 µM,–,–,–

SMILES,IC50 ([1]; Homo sapiens),IC50 [2],IC50 [1],other results
"O=c1c2ccccc2[se]n1-c1ccccc1 [Ebselen, reference compound]",–,50 to 100 µM,–,–
O=C1CCC(n2[se]c3c(F)cccc3c2=O)C(=O)N1 (stereo not shown) [Compound 10],1 to 10 µM,< 5 µM,–,–
O=C1CCC(n2[se]c3ccc(F)cc3c2=O)C(=O)N1 (stereo not shown) [Compound 4],10 to 100 µM,< 5 µM,–,–
O=C1CCC(n2[se]c3cccc([N+](=O)[O-])c3c2=O)C(=O)N1 (stereo not shown) [Compound 2],1 to 10 µM,5 to 50 µM,–,–
COc1cccc2c1[Se](=O)N(C1CCC(=O)NC1=O)C2=O (stereo not shown) [Compound 40],1 to 10 µM,50 to 100 µM,–,–
O=C1CC(N2C(=O)c3ccccc3[Se]2=O)C(=O)N1 (stereo not shown) [Compound 41],–,–,10 to 100 µM,–
CC(=O)Nc1cccc2c1[Se](=O)N(C1CCC(=O)NC1=O)C2=O (stereo not shown) [Compound 37],–,–,10 to 100 µM,–
O=C1CCC(n2[se]c3cc(Cl)ccc3c2=O)C(=O)N1 (stereo not shown) [Compound 8],10 to 100 µM,5 to 50 µM,–,–
O=C1CCC(n2[se]c3c([N+](=O)[O-])cccc3c2=O)C(=O)N1 (stereo not shown) [Compound 5],1 to 10 µM,50 to 100 µM,–,–
O=C1c2ccccc2[Se](=O)N1c1nc2ccccc2s1 (stereo not shown) [Compound 33],> 100 µM,–,–,–
CC1(C)S[C@@H]2[C@H](n3[se]c4ccccc4c3=O)C(=O)N2[C@H]1C(=O)O [Compound 17],> 100 µM,< 5 µM,–,–
COc1cccc2c(=O)n(C3CCC(=O)NC3=O)[se]c12 (stereo not shown) [Compound 11],–,–,1 to 10 µM,–
CC1(C)S[C@@H]2[C@H](n3[se]c4ccc(F)cc4c3=O)C(=O)N2[C@H]1C(=O)O [Compound 18],–,–,> 100 µM,–
"O=C1CCC(N2C(=O)c3ccccc3C2=O)C(=O)N1 (stereo not shown) [Thalidomide, reference compound]",> 100 µM,–,–,–
O=C1CC(n2[se]c3ccccc3c2=O)C(=O)N1 (stereo not shown) [Compound 24],–,–,10 to 100 µM,–
O=c1c2cc(F)ccc2[se]n1C12CC3CC(CC(O)(C3)C1)C2 [Compound 20],–,–,10 to 100 µM,–
Cc1cccc2c(=O)n(C3CC(=O)NC3=O)[se]c12 (stereo not shown) [Compound 28],–,–,< 1 µM,–
COc1ccc2[se]n(C3CC(=O)NC3=O)c(=O)c2c1 (stereo not shown) [Compound 25],10 to 100 µM,5 to 50 µM,–,–
COc1cccc2c1[Se]N(C13CC4CC(CC(O)(C4)C1)C3)C2 [Compound 50],10 to 100 µM,–,–,–
Nc1cccc2[se]n(C3CCC(=O)NC3=O)c(=O)c12 (stereo not shown) [Compound 3],< 1 µM,–,–,–
